Test results reported in US20210198685A1, “PLANTS CONTAINING ELITE EVENT EE-GM4 AND METHODS AND KITS FOR IDENTIFYING SUCH EVENT IN BIOLOGICAL SAMPLES, AND TREATMENT THEREOF” (priority 2018, published 2021).

Test system: soybean plants containing event EE-GM4
Assay: HPPD inhibitor herbicide tolerance field trials on soybean plants containing EE-GM4
Type: in vivo, Glycine max
Conditions: for tolerance / crop damage of plants with EE-GM4, herbicide applied post-emergence / tolerance of plants with EE-GM4 to herbicide applied pre-emergence: field, 2 years; for tolerance / crop damage of plants with EE-GM4, herbicide applied post-emergence: post-emergence at V2-V3 stage with crop oil concentrate and ammonium sulfate, 2x dose (210 gr/ha); for tolerance of plants with EE-GM4 to herbicide applied pre-emergence: 4x dose (420 gr/ha IFT, 840 gr/ha mesotrione); for average maximum phytotoxicity: plants with EE-GM4
Source text: Numbers in ( ) below a treatment give the number of trials included in the bar, the number on top of each bar gives the average maximum phytotoxicity value for that treatment. Treatments applied were: IFT=isoxaflutole, MST=mesotrione, PE=pre-emergence, PO=post-emergence (at V2-V3 stage, with adjuvants crop oil concentrate and ammonium sulfate added to increase herbicide activity). Rates shown are in gram active ingredient/hectare (4× dose in pre-emergence, 2× dose in post-emergence).
Tolerance of plants comprising EE-GM4 to HPPD inhibitor herbicides was tested at different locations in the field over 2 years. […] All post-emergence treatments were at the V2-V3 stage, with adjuvants crop oil concentrate and ammonium sulfate added to increase herbicide activity.
The “maximum phytotoxicity” as used herein is the highest phytotoxicity rating recorded at any observation during the duration of a trial (with 3 to 4 observations per trial). In existing weed control applications, a normal (1×) dose for isoxaflutole (IFT) in pre- or post-emergence application and for MST in post-emergence application is 105 gr/ha, and a normal (1×) dose for mesotrione in pre-emergence application is 210 gr/ha.
Also, in several field trials across 2 years, soybean plants with event EE-GM4 had good tolerance towards experimental HPPD inhibitor compound 2-methyl-N-(5-methyl-1,3,4-oxadiazol-2-yl)-3-(methylsulfonyl)-4-(trifluoromethyl)benzamide (U.S. Pat. No. 9,101,141) when applied pre-emergence at 400 gr ai/ha or post-emergence at 200 gr ai/ha, respectively (the average maximum phytotoxicity value for each treatment was below 20%). […] All post-emergence treatments were at the V2-V3 stage, with adjuvants crop oil concentrate and ammonium sulfate added to increase herbicide activity.

Structure (SMILES) | tolerance / crop damage of plants with EE-GM4, herbicide applied post-emergence | tolerance of plants with EE-GM4 to herbicide applied pre-emergence | average maximum phytotoxicity (post-emergence at 200 gr ai/ha, V2-V3 stage with adjuvants) | average maximum phytotoxicity (pre-emergence at 400 gr ai/ha, field trials across 2 years) | average maximum phytotoxicity (post-emergence at 100-150 gr ai/ha, V2-V3 stage with adjuvants)
CS(=O)(=O)c1cc(C(F)(F)F)ccc1C(=O)c1cnoc1C1CC1 [isoxaflutole, (5-cyclopropyl-4-isoxazolyl)[2-(methylsulfonyl)-4-(trifluoromethyl)phenyl]methanone] | crop damage was a bit higher | commercially relevant tolerance |  |  | 
CS(=O)(=O)c1ccc(C(=O)C2C(=O)CCCC2=O)c([N+](=O)[O-])c1 [mesotrione, 2-[4-(Methylsulfonyl)-2-nitrobenzoyl]cyclohexane-1,3-dione] | commercially relevant tolerance | commercially relevant tolerance |  |  | 
Cc1nnc(NC(=O)c2ccc(C(F)(F)F)c(S(C)(=O)=O)c2C)o1 [2-methyl-N-(5-methyl-1,3,4-oxadiazol-2-yl)-3-(methylsulfonyl)-4-(trifluoromethyl)benzamide] |  |  | below 20% | below 20% | 
CSc1c(C(F)(F)F)ccc(C(=O)Nc2nnnn2C)c1Cl [2-chloro-3-(methylsulfanyl)-N-(1-methyl-1H-tetrazol-5-yl)-4-(trifluoromethyl)benzamide] |  |  |  |  | 30%
